Bounds are passed on as bounds.

In this assay the target is adenosine kinase (Homo sapiens, UniProt P55263). Put plainly: In vitro inhibition of adenosine kinase activity. Type of assay: biochemical. The text has this: The adenosine kinase to be inhibited can be located in vitro, in situ or in vivo. Where the adenosine kinase is located in vitro, adenosine kinase is contacted with the inhibitor compound, typically by adding the compound to an aqueous solution containing the enzyme, radiolabeled substrate adenosine, magnesium chloride and ATP. The enzyme can exist in intact cells or in isolated subcellular fractions containing the enzyme. The enzyme is then maintained in the presence of the inhibitor for a period of time and under suitable physiological conditions. Means for determining maintained times are well known in the art and depend inter alia on the concentrations of enzyme and the physiological conditions. Suitable physiological conditions are those necessary to maintain adenosine kinase viability and include temperature, acidity, tonicity and the like. Inhibition of adenosine kinase can be performed, by example, according to standard procedures well known in the art (Yamada et at., Comp. Biochem. Physiol. 1982, 71B: 367-372).
In vitro adenosine kinase activity can be measured using any of the standard procedures well known in the art. By way of example, cells containing adenosine kinase, such as IMR-32 human neuroblastoma cells, are cultured in the presence and absence of an inhibitor. Inhibition is measured as the ability to inhibit phosphorylation of endogenous or externally applied ^14 C-adenosine by these cells. The cells can be intact or broken. The specificity of adenosine kinase inhibitory activity is determined by studying the effects of inhibitors on adenosine A1 and A2a receptor binding, adenosine deaminase activity and adenosine transport.
Numerous inhibitor compounds of the present invention were tested in vitro and found to inhibit adenosine kinase activity. The results of some representative studies are shown below in Tables 1 and 2.

Sequence of adenosine kinase (P55263 whole entry, species assumed): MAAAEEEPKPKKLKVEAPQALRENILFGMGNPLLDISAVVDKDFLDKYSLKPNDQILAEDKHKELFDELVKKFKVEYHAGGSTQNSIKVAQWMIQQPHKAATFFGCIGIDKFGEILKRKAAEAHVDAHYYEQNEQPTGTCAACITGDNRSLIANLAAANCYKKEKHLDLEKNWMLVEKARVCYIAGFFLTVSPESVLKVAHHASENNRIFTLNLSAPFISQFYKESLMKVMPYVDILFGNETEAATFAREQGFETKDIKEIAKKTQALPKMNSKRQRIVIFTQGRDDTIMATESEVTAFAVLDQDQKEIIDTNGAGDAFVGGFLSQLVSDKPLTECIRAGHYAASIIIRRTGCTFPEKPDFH

`N[C@@H]1C=C[C@H](n2cc(I)c3c(Cl)ncnc32)C1`: the IC50 (Table 1, in vitro, single structure) was 2.5 nM. Turning to `O=C(N[C@H]1C[C@@H](n2cc(I)c3c(Cl)ncnc32)[C@H](O)[C@@H]1O)c1cccnc1`, under “Table 2, in vitro”, the IC50 was 5 nM. `O[C@@H]1[C@H](O)[C@@H](O)C[C@H]1n1cc(Cl)c2c(Cl)ncnc21` [drawing 13 (R5=Cl, R6=Cl), N7-((1'R,2'S,3'R,4'S)-2',3',4'-trihydroxycyclopentyl)-4,5-dichloro-pyrrolopyrimidine] gave a half-inhibitory concentration (IC50) (Table 1, in vitro) of 90 nM.

For the compound `O[C@@H]1[C@H](O)[C@@H](O)C[C@H]1n1cc(I)c2c(Cl)ncnc21` [drawing 13 (R5=Cl, R6=I), N7-((1'R,2'S,3'R,4'S)-2',3',4'-trihydroxycyclopentyl)-4-chloro-5-iodo-pyrrolopyrimidine], the half-maximal inhibitory concentration (IC50) (Table 1, in vitro) was found to be 10 nM. The compound `O[C@@H]1[C@H](O)[C@@H](O)C[C@H]1n1cc(-c2ccccc2)c2c(Cl)ncnc21` [drawing 13 (R5=Cl, R6=Ph), N7-((1'R,2'S,3'R,4'S)-2',3',4'-trihydroxycyclopentyl)-4-chloro-5-phenyl-pyrrolopyrimidine] returned an IC50 (Table 1, in vitro) of 45 nM. As for `O[C@@H]1[C@H](O)[C@@H](O)C[C@H]1n1cc(C#Cc2ccccc2)c2c(Cl)ncnc21` [drawing 13 (R5=Cl, R6=PhCC), N7-((1'R,2'S,3'R,4'S)-2',3',4'-trihydroxycyclopentyl)-4-chloro-5-phenylacetylenyl-pyrrolopyrimidine], under “Table 1, in vitro”, 100 nM corresponded to half-maximal inhibition (IC50). Where the note is “Table 1, in vitro”, `Nc1ncnc2c1c(I)cn2[C@@H]1C[C@H](O)[C@@H](O)[C@H]1O` [drawing 13 (R5=NH2, R6=I), N7-((1'R,2'S,3'R,4'S)-2',3',4'-trihydroxycyclopentyl)-4-amino-5-iodo-pyrrolopyrimidine] registered an IC50 of 13 nM. Take `Nc1ncnc2c1c(-c1ccccc1)cn2[C@@H]1C[C@H](O)[C@@H](O)[C@H]1O` [drawing 13 (R5=NH2, R6=Ph), N7-((1'R,2'S,3'R,4'S)-2',3',4'-trihydroxycyclopentyl)-4-amino-5-phenyl-pyrrolopyrimidine]: the IC50 (Table 1, in vitro) was 200 nM.

In turn, `Nc1ncnc2c1c(C#Cc1ccccc1)cn2[C@@H]1C[C@H](O)[C@@H](O)[C@H]1O` [drawing 13 (R5=NH2, R6=PhCC), N7-((1'R,2'S,3'R,4'S)-2',3',4'-trihydroxycyclopentyl)-4-amino-5-phenylacetylenyl-pyrrolopyrimidine] returned an IC50 (Table 1, in vitro) of 230 nM. Consider `Nc1ncnc2c1c(CCc1ccccc1)cn2[C@@H]1C[C@H](O)[C@@H](O)[C@H]1O` [drawing 13 (R5=NH2, R6=PhCH2CH2), N7-((1'R,2'S,3'R,4'S)-2',3',4'-trihydroxycyclopentyl)-4-amino-5-((2phenyl)ethyl)-pyrrolopyrimidine], for which the IC50 (Table 1, in vitro) was 300 nM. The compound `O[C@@H]1[C@H](O)[C@@H](O)C[C@H]1n1cc(I)c2c(Nc3ccccc3)ncnc21` [drawing 13 (R5=NHPh, R6=I), N7-((1'R,2'S,3'R,4'S)-2',3',4'-trihydroxycyclopentyl)-4-(phenyl)amino-5-iodo-pyrrolopyrimidine] showed an IC50 (Table 1, in vitro) of 100 nM.

The compound `O[C@@H]1[C@H](O)[C@@H](O)C[C@H]1n1cc(-c2ccccc2)c2c(Nc3ccccc3)ncnc21` [drawing 13 (R5=NHPh, R6=Ph), N7-((1'R,2'S,3'R,4'S)-2',3',4'-trihydroxycyclopentyl)-4-(phenyl)amino-5-phenyl-pyrrolopyrimidine] showed a half-maximal inhibitory concentration (IC50) (Table 1, in vitro) of 3 nM. `O[C@@H]1[C@H](O)[C@@H](O)C[C@H]1n1cc(C#Cc2ccccc2)c2c(C#Cc3ccccc3)ncnc21` [drawing 13 (R5=PhCC, R6=PhCC), N7-((1'R,2'S,3'R,4'S)-2',3',4'-trihydroxycyclopentyl)-4,5-bis-phenylacetylenyl-pyrrolopyrimidine] registered a 50% inhibitory concentration (IC50) (Table 1, in vitro) of 15 nM. As to `CN(C)[C@H]1C[C@@H](n2cc(I)c3c(Cl)ncnc32)[C@H](O)[C@@H]1O` [drawing 14 (R4=(CH3)2N, R5=Cl, R6=I), N7-((1'R,2'S,3'R,4'S)-2',3'-dihydroxy-4'-(dimethyl)amino-cyclopentyl)-4-chloro-5-iodo-pyrrolopyrimidine], half-maximal inhibition (Table 1, in vitro) (IC50) was put at 20 nM. Compound `CC(C)(C)OC(=O)N(C(=O)OC(C)(C)C)[C@H]1C[C@@H](n2cc(I)c3c(Cl)ncnc32)[C@H](O)[C@@H]1O` [drawing 14 (R4=Boc2N, R5=Cl, R6=I), N7-((1'R,2'S,3'R,4'S)-2',3'-dihydroxy-4'-(bis-t-butoxycarbonylamino)-cyclopentyl)-4-chloro-5-iodo pyrrolopyrimidine] displayed an IC50 (Table 1, in vitro) of more than 1000 nM. In turn, `CN[C@H]1C[C@@H](n2cc(C)c3c(Cl)ncnc32)[C@H](O)[C@@H]1O` [drawing 14 (R4=CH3NH, R5=Cl, R6=CH3), N7-((1'R,2'S,3'R,4'S)-2',3'-dihydroxy-4'-(methyl)amino-cyclopentyl)-4-chloro-5-methyl-pyrrolopyrimidine] displayed an IC50 (Table 1, in vitro) of 300 nM. In the case of `N[C@H]1C[C@@H](n2cc(I)c3c(Cl)ncnc32)[C@H](O)[C@@H]1O` [drawing 14 (R4=H2N, R5=Cl, R6=I), N7-((1'R,2'S,3'R,4'S)-2',3'-dihydroxy-4'-amino-cyclopentyl)-4-chloro-5-iodo-pyrrolopyrimidine], the IC50 (Table 1, in vitro) was 0.035 nM. In the case of `Nc1ncnc2c1c(I)cn2[C@@H]1C[C@H](N)[C@@H](O)[C@H]1O` [drawing 14 (R4=H2N, R5=NH2, R6=I), N7-((1'R,2'S,3'R,4'S)-2',3'-dihydroxy-4'-amino-cyclopentyl)-4-amino-5-iodo-pyrrolopyrimidine], the IC50 (Table 1, in vitro) is 0.08 nM. Regarding `CC(C)(C)OC(=O)N[C@H]1C[C@@H](n2cc(I)c3c(N)ncnc32)[C@H](O)[C@@H]1O` [drawing 14 (R4=NHBoc, R5=NH2, R6=I), N7-((1'R,2'S,3'R,4'S)-2',3'-dihydroxy-4'-(t-butoxycarbonylamino)-cyclopentyl)-4-amino-5-iodo-pyrrolopyrimidine], the 50% inhibitory concentration (IC50) (Table 1, in vitro) amounted to 15 nM. As to `CC(=O)O[C@@H]1[C@H](OC(C)=O)[C@@H](OC(C)=O)C[C@H]1n1cc(-c2ccccc2)c2c(Cl)ncnc21` [drawing 16 (R5=Cl, R6=Ph), N7-((1'R,2'S,3'R,4'S)-2',3',4'-triacetoxycyclopentyl)-4-chloro-5-phenyl-pyrrolopyrimidine], the IC50 (Table 2, in vitro) is more than 100000 nM. For the setting “Table 2, in vitro”, `CC(=O)O[C@@H]1[C@H](OC(C)=O)[C@@H](OC(C)=O)C[C@H]1n1cc(C#Cc2ccccc2)c2c(C#Cc3ccccc3)ncnc21` [drawing 16 (R5=PhCC, R6=PhCC), N7-((1'R,2'S,3'R,4'S)-2',3',4'-triacetoxycyclopentyl)-4,5-bis-phenylacetylenyl-pyrrolopyrimidine] yielded a half-maximal inhibitory concentration (IC50) of more than 10000 nM. Under “Table 2, in vitro”, `CC(=O)N[C@H]1C[C@@H](n2cc(I)c3c(Cl)ncnc32)[C@H](OC(C)=O)[C@@H]1OC(C)=O` [drawing 17 (R5=Cl)] displayed a half-inhibitory concentration (IC50) of more than 10000 nM.

In turn, `O=C(N[C@H]1C[C@@H](n2cc(I)c3c(Cl)ncnc32)[C@H](O)[C@@H]1O)C(F)(F)F` [drawing 18 (R5=Cl, R=CF3CO), N7-((1'R,2'S,3'R,4'S)-2',3'-dihydroxy-4'-(trifluoroacetyl)amino-cyclopentyl)-4-chloro-5-iodo-pyrrolopyrimidine] showed a half-maximal inhibitory concentration (IC50) (Table 2, in vitro) of 110 nM. Under “Table 2, in vitro”, `CC(=O)N[C@H]1C[C@@H](n2cc(I)c3c(Cl)ncnc32)[C@H](O)[C@@H]1O` [drawing 18 (R5=Cl, R=CH3CO), N7-((1'R,2'S,3'R,4'S)-2',3'-dihydroxy-4'-(acetyl)amino-cyclopentyl)-4-chloro-5-iodo-pyrrolopyrimidine] gave an IC50 of 350 nM. Under “Table 2, in vitro”, `CC(=O)N[C@H]1C[C@@H](n2cc(I)c3c(N)ncnc32)[C@H](O)[C@@H]1O` [drawing 18 (R5=NH2, R=CH3CO), N7-((1'R,2'S,3'R,4'S)-2',3'-dihydroxy-4'-(acetyl)amino-cyclopentyl)-4-amino-5-iodo-pyrrolopyrimidine] returned an IC50 of 160 nM. On the same count and under the same terms, the result for `CC(C)(C)OC(=O)N[C@H]1C[C@@H](n2cc(I)c3c(N)ncnc32)[C@H](O)[C@@H]1O` [drawing 18 (R5=NH2, R=NHBoc), N7-((1'R,2'S,3'R,4'S)-2',3'-dihydroxy-4'-(t-butoxycarbonylamino)-cyclopentyl)-4-amino-5-iodo-pyrrolopyrimidine] reads 150 nM; that for `O=C(N[C@H]1C[C@@H](n2cc(I)c3c(O)ncnc32)[C@H](O)[C@@H]1O)C(F)(F)F` [drawing 18 (R5=OH, R=CF3CO), N7-((1'R,2'S,3'R,4'S)-2',3'-dihydroxy-4'-(trifluoroacetyl)amino-cyclopentyl)-4-hydroxy-5-iodo-pyrrolopyrimidine], 200 nM. For the setting “Table 2, in vitro”, `CC(=O)N[C@H]1C[C@@H](n2cc(I)c3c(Cl)ncnc32)[C@@H]2OC(=O)O[C@@H]21` [drawing 21 (R=CH3CO, R5=Cl), N7-((1'R,2'S,3'R,4'S)-2',3'--O-(2"-oxo-1",3"-dioxalyl)-4'-(acetyl)amino-cyclopentyl)-4-chloro-5-iodo-pyrrolopyrimidine] gave a half-maximal inhibitory concentration (IC50) of 6300 nM. Regarding `CC(=O)N[C@H]1C[C@@H](n2cc(I)c3c(O)ncnc32)[C@@H]2OC(=O)O[C@@H]21` [drawing 21 (R=CH3CO, R5=OH), N7-((1'R,2'S,3'R,4'S)-2',3'--O-(2"-oxo-1",3"-dioxalyl)-4'-(acetyl)amino-cyclopentyl)-4-hydroxy-5-iodo-pyrrolopyrimidine], half-maximal inhibition (Table 2, in vitro) (IC50) was put at 4000 nM.

One may read the IC50 as the point on the concentration scale where inhibition reaches its midpoint. Low readings indicate greater potency, high ones weaker potency.

(Values after patent US5665721A, “Heterocyclic substituted cyclopentane compounds” (Abbott Laboratories, priority 1995, dated 1997).)
